Measurements taken from patent US12264170B2, “Antimicrobial organosilanes” (TOPIKOS SCIENTIFIC, INC., priority 2019, dated 2025).
Converted amounts (≈) assume the structure as drawn.

Legend:
S. pyogenes ATCC 51339 = test: MIC microdilution assay; format: cell-based, Steptococcus pyogenes; conditions: S. pyogenes ATCC 51339; broth +5% defibrinated sheep blood; 35±2° C. 18 to 20 hours; two values given
Experimental: (§1) Strain numbers starting with “ATCC” were acquired from the American Type Culture Collection (Manassas, VA), while strain numbers starting with “CDC” were acquired from the Centers for Disease Control and Prevention (Atlanta, GA). All strains were maintained as −80° C. frozen glycerol stocks. S. aureus and P. aeruginosa were grown overnight on Tryptic Soy Agar (TSA) plates at 35±2° C., ambient atmosphere, while S. pyogenes was grown overnight on TSA+5% defibrinated sheep blood at 35±2° C., 5% CO2. All fungal species (i.e. C. albicans, C. auris and C. herbarum) were grown on Sabouraud Dextrose Agar (SDA) plates. C. herbarum was grown at 25±2° C. for 5 to 7 days, while all other fungal strains were grown at 35±2° C. overnight.
(§2) Test articles Compound 2 (batch #2G13A0.368) and Compound 23 (batch #2G17A0.372) were received and stored at 4° C. The antibiotic Tobramycin and antifungal Amphotericin B were used as quality control (QC) compounds for the MIC assay. Stock solutions of 3.2 mg/mL Tobramycin (Sigma-Aldrich, cat #T1783-500MG) and 3.2 mg/mL Amphotericin B (CP Lab Chemicals, cat #TOK-A007-1G) were prepared in sterile ultrapure water.
(§3) For bacteria strains, a few colonies of each strain were collected with a sterile swab and used to make a McFarland 0.5 standard solution (approximately 1×10^8 CFU/mL) in sterile PBS. The McFarland was then diluted 1:180 in Cation Adjusted Muller-Hinton Broth (CAMHB) for S. aureus and P. aeruginosa, and in CAVHIIB+5% defibrinated sheep blood for S. pyogenes. 90 μL of this inoculum was combined with 10 μL of the 10× test article in a 96-well plate for a final concentration of 1×.
(§4) All bacterial-strain MIC 96-well plates were incubated at 35±2° C. for 18 to 20 hours, while all Candida MIC 96-well plates were incubated at 35±2° C. for 24 to 48 hours. C. herbarum MIC 96-well plates were incubated at 25±2° C. for 3 to 5 days, until growth was visible in the growth control wells. After incubation, the 96-well plates were examined visually and on a spectrophotometer at absorbance OD650. […]

[1] = system: Cladosporium herbarum ATCC MYA-4682; test: MIC microdilution assay; format: cell-based; conditions: C. herbarum ATCC MYA-4682; RPMI media; 25±2° C. 3 to 5 days; two values given
Experimental: as §1
Test articles Compound 2 (batch #2G13A0.368) and Compound 23 (batch #2G17A0.372) were received and stored at 4° C. The antibiotic Tobramycin and antifungal Amphotericin B were used as quality control (QC) compounds for the MIC assay. […]
All bacterial-strain MIC 96-well plates were incubated at 35±2° C. for 18 to 20 hours, while all Candida MIC 96-well plates were incubated at 35±2° C. for 24 to 48 hours. […] After incubation, the 96-well plates were examined visually and on a spectrophotometer at absorbance OD650. […]

P. aeruginosa ATCC 27853 = test: MIC microdilution assay; format: cell-based, Pseudomonas aeruginosa; conditions: CAMHB, 35±2° C. 18 to 20 hours, two values given
Experimental: as §1, §2, §3, §4

[2] = system: Acinetobacter baumannii Eurofins 1674627; test: MIC microdilution assay (Example 32); format: cell-based; conditions: A. baumannii Eurofins 1674627; 35±2° C. 18 to 20 hours; two values given
Experimental: (§5) Strain IDs starting with “ATCC” were acquired from the American Type Culture Collection (Manassas, VA), strain IDs starting with “Eurofins” were acquired from Eurofins (Herndon, VA), while strain IDs starting with “CDC” were acquired from the Centers for Disease Control and Prevention (Atlanta, GA). All strains were maintained as −80° C. frozen glycerol stocks. S. aureus and P. aeruginosa were grown overnight on Tryptic Soy Agar (TSA) plates at 35±2° C., ambient atmosphere, while S. pyogenes was grown overnight on TSA+5% defibrinated sheep blood at 35±2° C., 5% CO2. C. jejuni was grown for 48 hours on TSA+5% defibrinated sheep blood at 35±2° C., in a microaerophilic environment generated by CampyGen sachet. All fungal species (i.e. C. albicans and C. auris) were grown overnight on Sabouraud Dextrose Agar (SDA) plates at 35±2° C., ambient atmosphere.
as §2, with “Test article” for “Test articles”, “Compound 1” for “Compound 2”, “(batch #7G30A9.203) was” for “(batch #2G13A0.368) and Compound 23 (batch #2G17A0.372) were received and”
as §3, with “aeruginosa. S. pyogenes McFarland was diluted 1:180” for “aeruginosa, and”, “CAMHB+5%” for “CAVHIIB+5%”, “blood, while C. jejuni McFarland was diluted 1:180 in CAMHB+5% laked horse blood.” for “blood for S. pyogenes.”
(§6) Except for C. jejuni, all bacterial-strain MIC 96-well plates were incubated at 35±2° C. for 18 to 20 hours, ambient atmosphere. C. jejuni was incubated at 35±2° C. for 48 hours, under microaerophilic condition. All Candida MIC 96-well plates were incubated at 35±2° C. for 24 to 48 hours, ambient atmosphere, until growth in control wells were observed. After incubation, the 96-well plates were examined visually and on a spectrophotometer at absorbance OD650. MIC is defined as the lowest concentration of a compound in which no visible growth is observed.

[3] = system: Pseudomonas aeruginosa CDC 0248; test: MIC microdilution assay (Example 32); format: cell-based; conditions: P. aeruginosa CDC 0248; CAMHB; 35±2° C. 18 to 20 hours; two values given
Experimental: as §5
as §2, with “Test article” for “Test articles”, “Compound 1” for “Compound 2”, “(batch #7G30A9.203) was” for “(batch #2G13A0.368) and Compound 23 (batch #2G17A0.372) were received and”
as §3, with “aeruginosa. S. pyogenes McFarland was diluted 1:180” for “aeruginosa, and”, “CAMHB+5%” for “CAVHIIB+5%”, “blood, while C. jejuni McFarland was diluted 1:180 in CAMHB+5% laked horse blood.” for “blood for S. pyogenes.”
as §6

[4] = system: Streptococcus pyogenes Eurofins 2065755; test: MIC microdilution assay (Example 32); format: cell-based; conditions: S. pyogenes Eurofins 2065755; CAMHB+5% defibrinated sheep blood; 35±2° C. 18 to 20 hours; two values given
Experimental: as §5
as §2, with “Test article” for “Test articles”, “Compound 1” for “Compound 2”, “(batch #7G30A9.203) was” for “(batch #2G13A0.368) and Compound 23 (batch #2G17A0.372) were received and”
as §3, with “aeruginosa. S. pyogenes McFarland was diluted 1:180” for “aeruginosa, and”, “CAMHB+5%” for “CAVHIIB+5%”, “blood, while C. jejuni McFarland was diluted 1:180 in CAMHB+5% laked horse blood.” for “blood for S. pyogenes.”
as §6

[5] = system: Pseudomonas aeruginosa ATCC 27853; test: MIC microdilution assay (Example 32); format: cell-based; conditions: P. aeruginosa ATCC 27853 (quality control); CAMHB; 35±2° C. 18 to 20 hours; two values given
Experimental: as §5
as §2, with “Test article” for “Test articles”, “Compound 1” for “Compound 2”, “(batch #7G30A9.203) was” for “(batch #2G13A0.368) and Compound 23 (batch #2G17A0.372) were received and”
as §3, with “aeruginosa. S. pyogenes McFarland was diluted 1:180” for “aeruginosa, and”, “CAMHB+5%” for “CAVHIIB+5%”, “blood, while C. jejuni McFarland was diluted 1:180 in CAMHB+5% laked horse blood.” for “blood for S. pyogenes.”
as §6

[6] = system: Pseudomonas aeruginosa Eurofins 1674623; test: MIC microdilution assay (Example 32); format: cell-based; conditions: P. aeruginosa Eurofins 1674623; CAMHB; 35±2° C. 18 to 20 hours; two values given
Experimental: as §5
as §2, with “Test article” for “Test articles”, “Compound 1” for “Compound 2”, “(batch #7G30A9.203) was” for “(batch #2G13A0.368) and Compound 23 (batch #2G17A0.372) were received and”
as §3, with “aeruginosa. S. pyogenes McFarland was diluted 1:180” for “aeruginosa, and”, “CAMHB+5%” for “CAVHIIB+5%”, “blood, while C. jejuni McFarland was diluted 1:180 in CAMHB+5% laked horse blood.” for “blood for S. pyogenes.”
as §6

[7] = system: Campylobacter jejuni CDC 0413; test: MIC microdilution assay (Example 32); format: cell-based; conditions: C. jejuni CDC 0413; CAMHB+5% laked horse blood; 35±2° C. 48 hours, microaerophilic; two values given
Experimental: as §5
as §2, with “Test article” for “Test articles”, “Compound 1” for “Compound 2”, “(batch #7G30A9.203) was” for “(batch #2G13A0.368) and Compound 23 (batch #2G17A0.372) were received and”
as §3, with “aeruginosa. S. pyogenes McFarland was diluted 1:180” for “aeruginosa, and”, “CAMHB+5%” for “CAVHIIB+5%”, “blood, while C. jejuni McFarland was diluted 1:180 in CAMHB+5% laked horse blood.” for “blood for S. pyogenes.”
as §6

Candida auris CDC 0385 = test: MIC microdilution assay (Example 32); format: cell-based; conditions: C. auris CDC 0385; RPMI media; 35±2° C. 24 to 48 hours; two values given
Experimental: as §5
as §2, with “Test article” for “Test articles”, “Compound 1” for “Compound 2”, “(batch #7G30A9.203) was” for “(batch #2G13A0.368) and Compound 23 (batch #2G17A0.372) were received and”
as §3, with “aeruginosa. S. pyogenes McFarland was diluted 1:180” for “aeruginosa, and”, “CAMHB+5%” for “CAVHIIB+5%”, “blood, while C. jejuni McFarland was diluted 1:180 in CAMHB+5% laked horse blood.” for “blood for S. pyogenes.”
(§7) For the yeasts C. albicans and C. auris, a McFarland 0.5 standard solution in sterile PBS was similarly prepared (approximately 1×10^6 CFU/mL) and was subsequently diluted 1:180 in RPMI 1640 media buffered with 0.165 M MOPS at pH 7.0 (herein referred to as “RPMI media”). 90 μL of the Candida inoculum was combined with 10 μL of the 10× test article in a 96-well plate for a final concentration of 1×.
as §6

[8] = system: Candida albicans ATCC 90028; test: MIC microdilution assay (Example 32); format: cell-based; conditions: C. albicans ATCC 90028 (quality control); RPMI media; 35±2° C. 24 to 48 hours; two values given
Experimental: as §5
as §2, with “Test article” for “Test articles”, “Compound 1” for “Compound 2”, “(batch #7G30A9.203) was” for “(batch #2G13A0.368) and Compound 23 (batch #2G17A0.372) were received and”
as §3, with “aeruginosa. S. pyogenes McFarland was diluted 1:180” for “aeruginosa, and”, “CAMHB+5%” for “CAVHIIB+5%”, “blood, while C. jejuni McFarland was diluted 1:180 in CAMHB+5% laked horse blood.” for “blood for S. pyogenes.”
as §7, §6

Candida auris CDC 0381 = test: MIC microdilution assay; format: cell-based; conditions: C. auris CDC 0381; RPMI media; 35±2° C. 24 to 48 hours; two values given
Experimental: as §1, §2, §3, §7
(§8) All bacterial-strain MIC 96-well plates were incubated at 35±2° C. for 18 to 20 hours, while all Candida MIC 96-well plates were incubated at 35±2° C. for 24 to 48 hours. C. herbarum MIC 96-well plates were incubated at 25±2° C. for 3 to 5 days, until growth was visible in the growth control wells. After incubation, the 96-well plates were examined visually and on a spectrophotometer at absorbance OD650. MIC is defined as the lowest concentration of a compound in which no visible growth is observed.

[9] = system: Candida albicans ATCC 90028; test: MIC microdilution assay; format: cell-based; conditions: C. albicans ATCC 90028; RPMI media; 35±2° C. 24 to 48 hours; two values given
Experimental: as §1, §2, §3, §7, §8

[10] = system: Staphylococcus aureus ATCC 33591; test: MIC microdilution assay; format: cell-based; conditions: S. aureus ATCC 33591; CAMHB; 35±2° C. 18 to 20 hours; two values given
Experimental: as §1, §2, §3, §4

MIC (S. pyogenes ATCC 51339): >32 µg/mL
MIC [1]: ≤0.03 µg/mL
MIC (P. aeruginosa ATCC 27853): >32 µg/mL
MIC [2]: >32 µg/mL
MIC [3]: >32 µg/mL
MIC [4]: >32 µg/mL
MIC [5]: >32 µg/mL
MIC [6]: >32 µg/mL
MIC [7]: >32 µg/mL
MIC (Candida auris CDC 0385): 4 µg/mL (≈ 4.33 µM)
MIC [8]: 1 µg/mL (≈ 1.08 µM)
MIC (Candida auris CDC 0381): 1 µg/mL (≈ 1.08 µM)
MIC [9]: 2 µg/mL (≈ 2.16 µM)
MIC [10]: >32 µg/mL
SMILES: C[C@@H]1[C@H](O)[C@@H](C)/C=C/C=C/C=C/C=C/C=C/C=C/C=C/[C@H](O[C@@H]2O[C@H](C)[C@@H](O)[C@H](N)[C@@H]2O)C[C@@H]2O[C@](O)(C[C@@H](O)C[C@@H](O)[C@H](O)CC[C@@H](O)C[C@@H](O)CC(=O)O[C@H]1C)C[C@H](O)[C@H]2C(=O)O [Amphotericin B]
